Source: PubChem BioAssay (NCI)
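Step 1: Grow cells in 96-well plates. Step 2: Expose to compound for 48 hours at 5 concentrations. Step 3: Interpolate endpoints linearly; if unreached, use highest concentration. The concentration for 50% growth inhibition is given as GI50. TGI: total growth inhibition.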

How the values were obtained:
Test in all cases: inhibition of tumour cell growth, NCI panel, 48 h
SN12C renal = test system: SN12C renal
UACC-62 melanoma = test system: UACC-62 melanoma
OVCAR-8 ovarian = test system: OVCAR-8 ovarian
COLO 205 colon = test system: COLO 205 colon
LOX IMVI melanoma = test system: LOX IMVI melanoma
EKVX NSCLC = test system: EKVX NSCLC
UACC-257 melanoma = test system: UACC-257 melanoma
SK-MEL-5 melanoma = test system: SK-MEL-5 melanoma
NCI-H460 lung = test system: NCI-H460 lung
A498 renal = test system: A498 renal
SK-OV-3 ovarian = test system: SK-OV-3 ovarian
HCC-2998 colon = test system: HCC-2998 colon
K-562 leukemia = test system: K-562 leukemia
UO-31 renal = test system: UO-31 renal

Compound	TGI (SN12C renal) [µM]	TGI (UACC-62 melanoma) [µM]	TGI (OVCAR-8 ovarian) [µM]	TGI (COLO 205 colon) [µM]	TGI (LOX IMVI melanoma) [µM]	TGI (EKVX NSCLC) [µM]	TGI (UACC-257 melanoma) [µM]	TGI (SK-MEL-5 melanoma) [µM]	TGI (NCI-H460 lung) [µM]	TGI (A498 renal) [µM]	TGI (SK-OV-3 ovarian) [µM]	TGI (HCC-2998 colon) [µM]	TGI (K-562 leukemia) [µM]	TGI (UO-31 renal) [µM]	GI50 (UACC-62 melanoma) [µM]	GI50 (COLO 205 colon) [µM]	GI50 (LOX IMVI melanoma) [µM]	GI50 (EKVX NSCLC) [µM]	GI50 (K-562 leukemia) [µM]	GI50 (NCI-H460 lung) [µM]
OCCNCCN1CCN(CCCN2c3ccccc3Sc3ccc(C(F)(F)F)cc32)CC1	33.9	41.2	31.9	32.4	28.5	52.3	34.6	> 100	44.7	> 100	77.9	44.7								
CC(=O)Oc1cc2c(cc1OC(C)=O)OCC(c1ccccc1)C2 (stereo not drawn)	56.6	53.3	73.5	47	46	57.8	29.2	39	57.9	12.2	72.3	65.5	80.1	58.4						
CCCNC(=O)C(C)C1CCC2(C)C=CC(=O)C(C)=C2C1O (stereo not drawn)	> 100	> 100	> 100	> 100	> 100	> 100	> 100	> 100	> 100	> 100	> 100	> 100	> 100	> 100						
N#C[C@H](OC1OC(COC2OC(CO)C(O)C(O)C2O)C(O)C(O)C1O)c1ccccc1 (stereo partly drawn)	> 250	> 250	> 250	> 250	> 250	> 250	> 250	> 250	> 250	> 11.6	> 250	> 250	> 250	> 250						
CN(C)CCCN1c2ccccc2Sc2ccc3ccccc3c21	22.9	9.62	27.1	10	19.8	23.9	4.1	8.21	7.66	14	27.5	3.04	5.56	17						
O=C(CCl)NNC1=Nc2ccc(Cl)cc2SC1	4.07	5.46	2.02	3.47	2.48	4.08	7.53	6.54	20.4	35.1	16.7	9.97	5.34	3.49						
O=C1OC2(CC1C1(O)C3CC4CC(C3)CC1C4)C1CC3CC(C1)CC2C3 (stereo not drawn)	> 100	> 100	> 100		> 100		> 100	> 100	> 100	84.5			> 100	> 100						
O=C(O)c1cc2c(ncc3c(=O)n(-c4ccccc4)[nH]c32)s1	> 100	> 100	> 100	> 100	> 100	> 100			> 100		> 100	> 100	> 100	> 100						
Cc1ccc(C2OC(COCc3ccc(Cl)cc3)C(OCc3ccc(Cl)cc3)C2O)cc1 (stereo not drawn)	13.1	18.7	36.9	> 100		40	43.1	25.9	14.9		15.3	72.7	> 100	23.8						
CCCc1c(-c2ccccc2)[nH]c2ccccc2c1=O	> 100	> 100		> 100	43.5	> 100	> 100		> 100	79	> 100	65.4	> 100	69.1						
Cn1c(=O)c2[nH]c(CCNC(=O)c3ccccc3)nc2n(C)c1=O	> 100	> 100	> 100		> 100	> 100	> 100	> 100	> 100	> 100		> 100	> 100	> 100						
CCN(CC)c1ccc2cc(C(=O)Nc3ccc4[nH]c(C(=O)N5C[C@@H](CCl)c6c5cc(OC(=O)Nc5ccccc5)c5[nH]cc(C)c65)cc4c3)oc2c1	> 1000		> 1000	> 1000			> 1000	> 1000		0.000864		> 1000	> 1000	982	44.5	> 1000	295	448	278	39.4
COc1nc(=O)n(COC(CO)CN2C(=O)c3ccccc3C2=O)cc1Cc1cccc(OCc2ccccc2)c1 (stereo not drawn)	58.5	28.5	> 100	37.4	41.5	> 100		30.5			90.6	43	60.1	52.4						
O=c1ssc(=Nc2ccccc2)n1-c1ccccc1	41.1	> 100	32.7	66.4	50.6	> 100	38.9	> 100	> 100	> 100	> 100	> 100	70.2	31.7						
O=C(Nc1nc2ccc([N+](=O)[O-])cc2s1)C(=O)C(C(=O)c1ccccc1F)C1OC(=O)c2ccccc21 (stereo not drawn)	> 100	> 100	> 100	62.4	> 100	73.4	> 100	> 100	> 100	> 100	93.7	84.2	> 100	> 100						
Nc1ccn(C2C=C(CO)C(O)C2O)c(=O)c1 (stereo not drawn)	> 625	> 625	> 625	> 625	> 625			> 625	> 625		> 625	> 625		> 625						
